{"source": "paper PMC8691750", "about": "“Euphorbia Factor L2 ameliorates the Progression of K/BxN Serum-Induced Arthritis by Blocking TLR7 Mediated IRAK4/IKKβ/IRF5 and NF-kB Signaling Pathways” (Frontiers in Pharmacology, 2021)", "test_system": "TLR signalling pathway genes", "test": "Toll-like Receptor Pathway PCR array of ankles", "type": "in vivo, C57BL/6 mice", "settings": "for S40/SIA (fold change) / log2(fold change) S40/SIA: S40 group vs SIA group", "method": "Total RNA was isolated from the right ankles using the TRIzol Reagent (Invitrogen) and purified with RNeasy Mini Kit and RNase-Free DNase Set (Qiagen). RNA quality was determined using a spectrophotometer and was reversely transcribed using Wcgene® mRNA cDNA kit. The complementary DNA was used on the Toll-like Receptor Pathway PCR Array plate (Wcgene® biotech, China).", "note": "Several values for one entry are separate records, joined by “and”; a condition that tells them apart may be missing. Identical values can stand only once."}
{"smiles": "C=C1C(OC(=O)c2ccccc2)CC2C(C=C(C)C(=O)C3(OC(C)=O)CC(C)C(OC(=O)c4ccccc4)C3C1OC(C)=O)C2(C)C", "note": "(stereo not shown) [EFL2, Euphorbia factor L2]", "values": [{"measurement": "fold-GAPDH, ACTB", "setting": "ACTB mRNA relative to GAPDH (内参-GAPDH), individual mice of EFL2 group (S401, S402, S404, S405 = EFL2-1 to -4)", "result": "1.058 and 1.072 and 0.8044"}, {"measurement": "fold-GAPDH, B2M", "setting": "B2M mRNA relative to GAPDH, individual mice of EFL2 group (S401, S402, S404, S405)", "result": "0.312 and 0.4388 and 0.3402 and 0.1942"}, {"measurement": "fold-GAPDH, Becn1", "setting": "Becn1 mRNA relative to GAPDH, individual mice of EFL2 group (S401, S402, S404, S405)", "result": "0.001891 and 0.007192 and 0.004096"}, {"measurement": "S40/SIA (fold change)", "setting": "Becn1 mRNA", "result": 0.2727}, {"measurement": "log2(fold change) S40/SIA", "setting": "Becn1 mRNA", "result": -1.875}, {"measurement": "fold-GAPDH, Btk", "setting": "Btk mRNA relative to GAPDH, individual mice of EFL2 group (S401, S402, S404, S405)", "result": "0.002403 and 0.001831 and 0.004678 and 0.001063"}, {"measurement": "S40/SIA (fold change)", "setting": "Btk mRNA", "result": 0.3155}, {"measurement": "log2(fold change) S40/SIA", "setting": "Btk mRNA", "result": -1.664}, {"measurement": "fold-GAPDH, Casp8", "setting": "Casp8 mRNA relative to GAPDH, individual mice of EFL2 group (S401, S402, S404, S405)", "result": "0.01634 and 0.01358 and 0.009475"}, {"measurement": "S40/SIA (fold change)", "setting": "Casp8 mRNA", "result": 0.2393}, {"measurement": "log2(fold change) S40/SIA", "setting": "Casp8 mRNA", "result": -2.063}, {"measurement": "fold-GAPDH, Ccl2", "setting": "Ccl2 mRNA relative to GAPDH, individual mice of EFL2 group (S401, S402, S404, S405)", "result": "0.01529 and 0.00629 and 0.0002036"}, {"measurement": "S40/SIA (fold change)", "setting": "Ccl2 mRNA", "result": 0.0326}, {"measurement": "log2(fold change) S40/SIA", "setting": "Ccl2 mRNA", "result": -4.939}, {"measurement": "fold-GAPDH, Ccl11", "setting": "Ccl11 mRNA relative to GAPDH, individual mice of EFL2 group (S401, S402, S404, S405)", "result": "0.01036 and 0.008836 and 0.01327 and 0.005579"}, {"measurement": "S40/SIA (fold change)", "setting": "Ccl11 mRNA", "result": 1.864}, {"measurement": "log2(fold change) S40/SIA", "setting": "Ccl11 mRNA", "result": 0.8985}, {"measurement": "fold-GAPDH, Ccl20", "setting": "Ccl20 mRNA relative to GAPDH, individual mice of EFL2 group (S401, S402, S404, S405)", "result": "3.719e-5 and 0.0001299"}, {"measurement": "fold-GAPDH, Cd14", "setting": "Cd14 mRNA relative to GAPDH, individual mice of EFL2 group (S401, S402, S404, S405)", "result": "0.005751 and 0.00806 and 0.003038 and 0.001749"}, {"measurement": "fold-GAPDH, Cd80", "setting": "Cd80 mRNA relative to GAPDH, individual mice of EFL2 group (S401, S402, S404, S405)", "result": "0.002341 and 0.005041 and 0.0008698"}, {"measurement": "fold-GAPDH, Cd86", "setting": "Cd86 mRNA relative to GAPDH, individual mice of EFL2 group (S401, S402, S404, S405)", "result": "0.0007215 and 0.0005777 and 0.0007714 and 0.0003428"}, {"measurement": "S40/SIA (fold change)", "setting": "Cd86 mRNA", "result": 0.1925}, {"measurement": "log2(fold change) S40/SIA", "setting": "Cd86 mRNA", "result": -2.3771}, {"measurement": "fold-GAPDH, Chuk", "setting": "Chuk mRNA relative to GAPDH, individual mice of EFL2 group (S401, S402, S404, S405)", "result": "0.008767 and 0.01087 and 0.008829"}, {"measurement": "S40/SIA (fold change)", "setting": "Chuk mRNA", "result": 0.3313}, {"measurement": "log2(fold change) S40/SIA", "setting": "Chuk mRNA", "result": -1.594}, {"measurement": "fold-GAPDH, Clec4e", "setting": "Clec4e mRNA relative to GAPDH, individual mice of EFL2 group (S401, S402, S404, S405)", "result": "0.0002637 and 0.002249 and 0.0004993 and 4.1493e-5"}, {"measurement": "S40/SIA (fold change)", "setting": "Clec4e mRNA", "result": 0.0859}, {"measurement": "log2(fold change) S40/SIA", "setting": "Clec4e mRNA", "result": -3.541}, {"measurement": "fold-GAPDH, Cxcl10", "setting": "Cxcl10 mRNA relative to GAPDH, individual mice of EFL2 group (S401, S402, S404, S405)", "result": "2.1064e-5"}, {"measurement": "S40/SIA (fold change)", "setting": "Cxcl10 mRNA", "result": 0.002337}, {"measurement": "log2(fold change) S40/SIA", "setting": "Cxcl10 mRNA", "result": -8.741}, {"measurement": "fold-GAPDH, Eif2ak2", "setting": "Eif2ak2 mRNA relative to GAPDH, individual mice of EFL2 group (S401, S402, S404, S405)", "result": "0.004437 and 0.00565 and 0.003196"}, {"measurement": "fold-GAPDH, Elk1", "setting": "Elk1 mRNA relative to GAPDH, individual mice of EFL2 group (S401, S402, S404, S405)", "result": "0.006009 and 0.005652 and 0.006734 and 0.002589"}, {"measurement": "S40/SIA (fold change)", "setting": "Elk1 mRNA", "result": 0.3565}, {"measurement": "log2(fold change) S40/SIA", "setting": "Elk1 mRNA", "result": -1.488}, {"measurement": "fold-GAPDH, Fadd", "setting": "Fadd mRNA relative to GAPDH, individual mice of EFL2 group (S401, S402, S404, S405)", "result": "0.001977 and 0.0009207 and 0.00158 and 0.0009332"}, {"measurement": "S40/SIA (fold change)", "setting": "Fadd mRNA", "result": 0.1995}, {"measurement": "log2(fold change) S40/SIA", "setting": "Fadd mRNA", "result": -2.325}, {"measurement": "fold-GAPDH, Fos", "setting": "Fos mRNA relative to GAPDH, individual mice of EFL2 group (S401, S402, S404, S405)", "result": "0.02349 and 0.0137 and 0.0143 and 0.009915"}, {"measurement": "fold-GAPDH, HPRT1", "setting": "HPRT1 mRNA relative to GAPDH, individual mice of EFL2 group (S401, S402, S404, S405)", "result": "0.01241 and 0.008273 and 0.01631"}, {"measurement": "fold-GAPDH, Hmgb1", "setting": "Hmgb1 mRNA relative to GAPDH, individual mice of EFL2 group (S401, S402, S404, S405)", "result": "0.3089 and 0.3274 and 0.2681 and 0.1726"}, {"measurement": "fold-GAPDH, Hras1", "setting": "Hras1 mRNA relative to GAPDH, individual mice of EFL2 group (S401, S402, S404, S405)", "result": "0.02419 and 0.02746 and 0.02268 and 0.01475"}, {"measurement": "S40/SIA (fold change)", "setting": "Hras1 mRNA", "result": 0.4915}, {"measurement": "log2(fold change) S40/SIA", "setting": "Hras1 mRNA", "result": -1.025}, {"measurement": "fold-GAPDH, Hspa1a", "setting": "Hspa1a mRNA relative to GAPDH, individual mice of EFL2 group (S401, S402, S404, S405)", "result": "0.03203 and 0.003543 and 0.006228"}, {"measurement": "fold-GAPDH, Hspd1", "setting": "Hspd1 mRNA relative to GAPDH, individual mice of EFL2 group (S401, S402, S404, S405)", "result": "0.02796 and 0.02518 and 0.003019 and 0.01313"}, {"measurement": "S40/SIA (fold change)", "setting": "Hspd1 mRNA", "result": 0.2339}, {"measurement": "log2(fold change) S40/SIA", "setting": "Hspd1 mRNA", "result": -2.096}, {"measurement": "fold-GAPDH, IRF5", "setting": "IRF5 mRNA in ankles of STA mice, relative to GAPDH, one value per animal (samples S401-S405)", "result": "0.004631 and 0.004692 and 0.004033 and 0.001353"}, {"measurement": "S40/SIA (fold change)", "setting": "IRF5 mRNA", "result": 0.3677}, {"measurement": "log2(fold change) S40/SIA", "setting": "IRF5 mRNA", "result": -1.443}, {"measurement": "fold-GAPDH, Ikbkb", "setting": "Ikbkb mRNA relative to GAPDH, individual mice of EFL2 group (S401, S402, S404, S405)", "result": "0.009029 and 0.01266 and 0.01025 and 0.004561"}, {"measurement": "fold-GAPDH, Il1a", "setting": "Il1a mRNA relative to GAPDH, individual mice of EFL2 group (S401, S402, S404, S405)", "result": "0.0002392 and 0.0002831 and 9.48e-5"}, {"measurement": "fold-GAPDH, Il1b", "setting": "Il1b mRNA relative to GAPDH, individual mice of EFL2 group (S401, S402, S404, S405)", "result": "0.005996 and 0.0009616 and 0.0008 and 0.0006699"}, {"measurement": "S40/SIA (fold change)", "setting": "Il1b mRNA", "result": 0.0229}, {"measurement": "log2(fold change) S40/SIA", "setting": "Il1b mRNA", "result": -5.448}, {"measurement": "fold-GAPDH, Il6", "setting": "Il6 mRNA relative to GAPDH, individual mice of EFL2 group (S401, S402, S404, S405)", "result": "0.002971 and 0.0008677 and 0.0003997 and 0.0006556"}, {"measurement": "S40/SIA (fold change)", "setting": "Il6 mRNA", "result": 0.03478}, {"measurement": "log2(fold change) S40/SIA", "setting": "Il6 mRNA", "result": -4.845}, {"measurement": "fold-GAPDH, Il6ra", "setting": "Il6ra mRNA in ankles of STA mice, relative to GAPDH, one value per animal (samples S401-S405)", "result": "0.009397 and 0.01121 and 0.004741"}, {"measurement": "fold-GAPDH, Il10", "setting": "Il10 mRNA relative to GAPDH, individual mice of EFL2 group (S401, S402, S404, S405)", "result": "0.0001425 and 0.0002257 and 7.048e-5 and 9.932e-5"}, {"measurement": "S40/SIA (fold change)", "setting": "Il10 mRNA", "result": 0.2443}, {"measurement": "log2(fold change) S40/SIA", "setting": "Il10 mRNA", "result": -2.033}, {"measurement": "fold-GAPDH, Il12a", "setting": "Il12a mRNA relative to GAPDH, individual mice of EFL2 group (S401, S402, S404, S405)", "result": "0.001377 and 0.0005874 and 0.0009712 and 0.0002213"}, {"measurement": "fold-GAPDH, Ilr1", "setting": "Ilr1 mRNA in ankles of STA mice, relative to GAPDH, one value per animal (samples S401-S405)", "result": "0.01383 and 0.01561 and 0.01023 and 0.00774"}, {"measurement": "S40/SIA (fold change)", "setting": "Ilr1 mRNA", "result": 0.09556}, {"measurement": "log2(fold change) S40/SIA", "setting": "Ilr1 mRNA", "result": -3.388}, {"measurement": "fold-GAPDH, Irak1", "setting": "Irak1 mRNA in ankles of STA mice, relative to GAPDH, one value per animal (samples S401-S405)", "result": "0.02263 and 0.02515 and 0.01545 and 0.008286"}, {"measurement": "fold-GAPDH, Irak2", "setting": "Irak2 mRNA in ankles of STA mice, relative to GAPDH, one value per animal (samples S401-S405)", "result": "0.003024 and 0.004831 and 0.004355 and 0.002516"}]}
